Our source for the CETSA thermal stabilization values is paper PMC10349134, “The RNA-binding protein LRPPRC promotes resistance to CDK4/6 inhibition in lung cancer” (Nature Communications, 2023).

Structures are written as SMILES.

This assay deals with T1, LRPPRC (endogenous, A549 cells) (Homo sapiens, UniProt P42704).
T1 construct: endogenous protein in A549 lung adenocarcinoma cells; no tag
Nature of the assay: cellular thermal shift assay (CETSA), immunoblot. Type of assay: cell-based. Particulars: 40 μM GAA vs DMSO. A general note: Immunoblotting shows a protein as a band on a membrane.

In the case of `Cc1cc2c(C(C)C)c(O)c(O)c(C=O)c2c(O)c1-c1c(C)cc2c(C(C)C)c(O)c(O)c(C=O)c2c1O` [GAA], the CETSA thermal stabilization result is on record as “GAA could increase the thermal stabilization of LRPPRC”.
